Assay results reported in patent publication US12486290B2, “Isoindolinone and indazole compounds for the degradation of EGFR” (C4 THERAPEUTICS, INC., priority 2019, dated 2025).

Columns and labels:
Assay type in all cases: cell-based
[1] = biological target: T1, EGFR T790M/L858R (NCI-H1975 cells) (Homo sapiens, UniProt P00533, L858R/T790M); assay: EGFR (L858R) degradation analysis, Total EGFR (L858R) HTRF, NCI-H1975 cells; conditions: 6 hours
T1 construct: NCI-H1975 (harboring EGFR heterozygous T790M/L858R mutations); host or cells: NCI-H1975
T1 sequence (P00533 25-1210 T790M/L858R): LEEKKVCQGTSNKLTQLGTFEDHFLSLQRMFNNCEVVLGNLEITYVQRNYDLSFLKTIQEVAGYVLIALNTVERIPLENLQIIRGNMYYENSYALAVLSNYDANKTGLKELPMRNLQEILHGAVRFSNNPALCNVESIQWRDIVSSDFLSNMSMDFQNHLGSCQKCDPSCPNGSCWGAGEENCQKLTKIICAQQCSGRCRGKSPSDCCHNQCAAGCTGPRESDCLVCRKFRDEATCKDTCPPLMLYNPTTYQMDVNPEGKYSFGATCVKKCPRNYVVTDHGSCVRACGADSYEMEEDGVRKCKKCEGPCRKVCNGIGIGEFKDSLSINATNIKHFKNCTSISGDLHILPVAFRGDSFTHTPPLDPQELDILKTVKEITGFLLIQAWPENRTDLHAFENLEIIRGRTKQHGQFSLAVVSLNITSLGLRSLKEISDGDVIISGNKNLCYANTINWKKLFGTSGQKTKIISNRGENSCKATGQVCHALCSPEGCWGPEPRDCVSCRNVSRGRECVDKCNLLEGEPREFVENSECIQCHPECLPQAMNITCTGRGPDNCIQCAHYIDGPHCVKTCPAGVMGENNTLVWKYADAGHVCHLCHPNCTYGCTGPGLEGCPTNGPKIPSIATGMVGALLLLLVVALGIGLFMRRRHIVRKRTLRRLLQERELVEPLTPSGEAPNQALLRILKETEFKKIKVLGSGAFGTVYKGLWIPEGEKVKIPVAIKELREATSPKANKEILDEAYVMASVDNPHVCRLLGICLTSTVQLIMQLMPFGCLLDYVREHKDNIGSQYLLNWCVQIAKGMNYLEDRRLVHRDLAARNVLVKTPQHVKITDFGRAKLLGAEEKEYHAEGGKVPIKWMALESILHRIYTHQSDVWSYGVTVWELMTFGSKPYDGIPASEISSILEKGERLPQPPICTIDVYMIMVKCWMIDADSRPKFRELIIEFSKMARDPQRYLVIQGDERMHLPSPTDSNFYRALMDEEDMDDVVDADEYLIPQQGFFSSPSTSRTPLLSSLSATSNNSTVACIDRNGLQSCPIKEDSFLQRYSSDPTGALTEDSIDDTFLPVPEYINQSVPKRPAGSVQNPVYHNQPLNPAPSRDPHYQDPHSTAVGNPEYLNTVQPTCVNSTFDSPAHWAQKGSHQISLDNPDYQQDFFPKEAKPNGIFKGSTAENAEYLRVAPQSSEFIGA
Method in brief: (§1)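 Cells (10000/well NCI-H1975 and NCI-H1975+CS, 1000/well NCI-H3255) treated with 11-point half-log titrations from 10 μM top, in duplicate, for 6 hours at 37° C., 5% CO2. Total EGFR (L858R) quantified by HTRF FRET; untreated cells as negative and cell-free wells as positive control.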

[2] = biological target: T2, EGFR L858R (NCI-H3255 cells) (Homo sapiens, UniProt P00533, L858R); assay: EGFR (L858R) degradation analysis, Total EGFR (L858R) HTRF, NCI-H3255 cells; conditions: 6 hours
T2 construct: NCI-H3255 (harboring EGFR heterozygous L858R mutation); host or cells: NCI-H3255
T2 sequence (P00533 25-1210 L858R): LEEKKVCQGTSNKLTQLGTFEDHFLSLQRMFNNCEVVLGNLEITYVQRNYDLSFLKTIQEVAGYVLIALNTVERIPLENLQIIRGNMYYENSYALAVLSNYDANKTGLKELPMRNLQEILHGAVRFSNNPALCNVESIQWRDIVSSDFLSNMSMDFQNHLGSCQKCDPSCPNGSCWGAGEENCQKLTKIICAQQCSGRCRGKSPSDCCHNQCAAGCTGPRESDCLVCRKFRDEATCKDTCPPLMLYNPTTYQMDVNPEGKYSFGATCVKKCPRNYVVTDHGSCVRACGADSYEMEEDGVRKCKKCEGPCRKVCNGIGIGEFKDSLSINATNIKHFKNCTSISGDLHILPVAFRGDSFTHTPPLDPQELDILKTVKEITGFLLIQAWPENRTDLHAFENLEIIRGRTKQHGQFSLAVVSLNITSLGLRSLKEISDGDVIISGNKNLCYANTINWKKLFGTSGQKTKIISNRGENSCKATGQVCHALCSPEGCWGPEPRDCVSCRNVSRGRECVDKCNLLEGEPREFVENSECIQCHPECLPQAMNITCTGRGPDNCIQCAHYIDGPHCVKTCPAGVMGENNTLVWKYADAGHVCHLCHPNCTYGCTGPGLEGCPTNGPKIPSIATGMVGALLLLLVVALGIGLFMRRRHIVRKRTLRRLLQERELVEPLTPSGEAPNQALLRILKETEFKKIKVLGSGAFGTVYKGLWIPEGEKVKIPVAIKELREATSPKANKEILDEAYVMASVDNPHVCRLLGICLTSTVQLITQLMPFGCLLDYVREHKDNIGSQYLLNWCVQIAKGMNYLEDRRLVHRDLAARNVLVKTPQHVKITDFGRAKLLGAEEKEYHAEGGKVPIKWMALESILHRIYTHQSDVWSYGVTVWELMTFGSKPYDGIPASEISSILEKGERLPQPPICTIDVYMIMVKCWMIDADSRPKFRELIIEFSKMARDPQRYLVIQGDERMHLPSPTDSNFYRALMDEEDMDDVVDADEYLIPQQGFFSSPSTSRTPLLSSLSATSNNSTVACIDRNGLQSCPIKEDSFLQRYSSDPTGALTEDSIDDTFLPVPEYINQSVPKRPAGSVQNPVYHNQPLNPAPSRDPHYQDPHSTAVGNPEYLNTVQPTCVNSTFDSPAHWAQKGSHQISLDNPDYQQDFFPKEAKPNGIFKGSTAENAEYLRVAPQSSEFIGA
Method in brief: as §1

[3] = biological target: T3, EGFR T790M/L858R/C797S (NCI-H1975+CS cells) (Homo sapiens, UniProt P00533, C797S/L858R/T790M); assay: EGFR (L858R) degradation analysis, Total EGFR (L858R) HTRF, NCI-H1975+CS cells; conditions: 6 hours, read-out: H1975 C797S clone EGFR DC50
T3 construct: NCI-H1975+CS (harboring EGFR heterozygous T/790M/L858R/C797S mutations) was generated using CRISPR technology; host or cells: NCI-H1975+CS (CRISPR-edited NCI-H1975)
T3 sequence (P00533 25-1210 T790M/C797S/L858R): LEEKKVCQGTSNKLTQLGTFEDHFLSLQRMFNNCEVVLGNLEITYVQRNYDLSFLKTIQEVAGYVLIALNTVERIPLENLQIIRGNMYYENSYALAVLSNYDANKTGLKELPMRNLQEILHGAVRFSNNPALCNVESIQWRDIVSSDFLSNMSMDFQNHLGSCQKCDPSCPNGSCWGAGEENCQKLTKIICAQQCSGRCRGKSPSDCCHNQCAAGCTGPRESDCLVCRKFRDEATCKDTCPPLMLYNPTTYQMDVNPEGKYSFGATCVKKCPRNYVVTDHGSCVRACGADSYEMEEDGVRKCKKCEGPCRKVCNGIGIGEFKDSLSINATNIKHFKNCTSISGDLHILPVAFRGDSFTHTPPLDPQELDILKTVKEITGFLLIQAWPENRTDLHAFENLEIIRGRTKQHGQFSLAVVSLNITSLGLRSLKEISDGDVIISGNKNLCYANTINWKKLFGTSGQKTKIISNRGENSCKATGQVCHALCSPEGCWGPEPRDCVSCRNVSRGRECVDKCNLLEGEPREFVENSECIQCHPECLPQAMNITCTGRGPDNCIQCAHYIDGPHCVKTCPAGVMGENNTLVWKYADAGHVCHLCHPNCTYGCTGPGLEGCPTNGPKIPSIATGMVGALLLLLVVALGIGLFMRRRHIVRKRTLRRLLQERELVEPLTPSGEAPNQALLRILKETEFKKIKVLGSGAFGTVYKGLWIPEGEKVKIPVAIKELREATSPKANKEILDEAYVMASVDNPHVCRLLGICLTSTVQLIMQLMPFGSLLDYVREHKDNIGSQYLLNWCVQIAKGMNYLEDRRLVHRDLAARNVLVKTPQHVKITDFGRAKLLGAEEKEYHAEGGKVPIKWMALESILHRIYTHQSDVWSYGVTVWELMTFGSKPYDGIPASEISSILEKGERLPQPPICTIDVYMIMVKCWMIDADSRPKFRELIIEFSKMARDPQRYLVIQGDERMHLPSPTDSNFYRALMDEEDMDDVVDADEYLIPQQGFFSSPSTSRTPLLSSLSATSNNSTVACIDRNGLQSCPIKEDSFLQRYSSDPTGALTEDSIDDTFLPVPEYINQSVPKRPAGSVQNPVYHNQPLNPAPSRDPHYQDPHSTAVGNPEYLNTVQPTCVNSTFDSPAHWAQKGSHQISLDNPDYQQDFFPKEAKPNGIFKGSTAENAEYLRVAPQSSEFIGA
Description: NCI-H1975 (harboring EGFR heterozygous T790M/L858R mutations) and NCI-H3255 (harboring EGFR heterozygous L858R mutation) were purchased from ATCC and NCI, respectively. NCI-H1975+CS (harboring EGFR heterozygous T/790M/L858R/C797S mutations) was generated using CRISPR technology to introduce the additional C797S mutation by Horizon Discovery. RPMI 1640 no-phenol red medium and fetal bovine serum (FBS) were purchased from Gibco (Grand Island, NY, USA). Cell culture flasks and 384-well microplates were acquired from VWR (Radnor, PA, USA). Total EGFR (L858R) HTRF assay kits were purchased from Cisbio (Bedford, MA, USA).
Degradation of EGFR protein containing L858R mutation was determined based on quantification of FRET signal using Total EGFR (L858R) HTRF assay kit. Test compounds were added to the 384-well plate from a top concentration of 10 μM with 11 points, half log titration in duplicates. NCI-H1975, NCI-H1975+CS or NCI-H3255 cells were added into 384-well plates at a cell density of 10000, 10000 or 1000 cells per well, respectively. The plates were kept at 37° C. with 5% CO2 for 6 hours. Cells treated in the absence of the test compound were the negative control. Positive control was set by wells containing all reagents but no cells. FRET signal was acquired on EnVision™ Multilabel Reader (PerkinElmer, Santa Clara, CA, USA).

| Structure (SMILES) | DC50 [1] [nM] | DC50 [2] [nM] | DC50 [3] [nM] |
| --- | --- | --- | --- |
| O=C1CCC(Nc2ccc(C3CCN(CC(=O)N4CCC(Oc5ccc(-c6cc(F)c7c(c6)C(=O)N(C(C(=O)Nc6nccs6)c6ncn8c6CCC8)C7)cc5)CC4)CC3)cc2F)C(=O)N1 (stereo not drawn) [Compound 34, 2-(6,7-dihydro-5H-pyrrolo[1,2-c]imidazol-1-yl)-2-(6-(4-((1-(2-(4-(4-((2,6-dioxopiperidin-3-yl)amino)-3-fluorophenyl)piperidin-1-yl)acetyl)piperidin-4-yl)oxy)phenyl)-4-fluoro-1-oxoisoindolin-2-yl)-N-(thiazol-2-yl)acetamide] | 57 | 13 | 22 |
| O=C1CC[C@H](Nc2ccc(C3CCN(CC(=O)N4CCN(c5ccc(-c6cc(F)c7c(c6)C(=O)N(C(C(=O)Nc6nccs6)c6ncn8c6C[C@@H](F)C8)C7)cc5)CC4)CC3)c(F)c2)C(=O)N1 (stereo partly drawn) [Compound 44, 2-[6-[4-[4-[2-[4-[4-[[(3S)-2,6-dioxo-3-piperidyl]amino]-2-fluoro-phenyl]-1-piperidyl]acetyl]piperazin-1-yl]phenyl]-4-fluoro-1-oxo-isoindolin-2-yl]-2-[(6R)-6-fluoro-6,7-dihydro-5H-pyrrolo[1,2-c]imidazol-1-yl]-N-thiazol-2-yl-acetamide] | 22 | 6 | 12 |
| O=C1CCC(Nc2ccc(C3CCN(CC(=O)N4CC5(C4)CN(c4ccc(-c6cc(F)c7c(c6)C(=O)N(C(C(=O)Nc6nccs6)c6ncn8c6CCC8)C7)cc4)C5)CC3)cc2)C(=O)N1 (stereo not drawn) [Compound 47, 2-(6,7-dihydro-5H-pyrrolo[1,2-c]imidazol-1-yl)-2-[6-[4-[2-[2-[4-[4-[(2,6-dioxo-3-piperidyl)amino]phenyl]-1-piperidyl]acetyl]-2,6-diazaspiro[3.3]heptan-6-yl]phenyl]-4-fluoro-1-oxo-isoindolin-2-yl]-N-thiazol-2-yl-acetamide] | 18 | 10 | 9 |
| O=C1CC[C@H](Nc2ccc(C3CCN(CC(=O)N4CC5(C4)CN(c4ccc(-c6cc(F)c7c(c6)C(=O)N(C(C(=O)Nc6nccs6)c6ncn8c6CCC8)C7)cc4)C5)CC3)c(F)c2)C(=O)N1 (stereo partly drawn) [Compound 48, 2-(6,7-dihydro-5H-pyrrolo[1,2-c]imidazol-1-yl)-2-[6-[4-[2-[2-[4-[4-[[(3S)-2,6-dioxo-3-piperidyl]amino]-2-fluoro-phenyl]-1-piperidyl]acetyl]-2,6-diazaspiro[3.3]heptan-6-yl]phenyl]-4-fluoro-1-oxo-isoindolin-2-yl]-N-thiazol-2-yl-acetamide] | 28 | 7 | 11 |
| O=C1CCC(Nc2ccc(C3CCN(CC(=O)N4CCN(Cc5ccc(-c6cc(F)c7c(c6)C(=O)N(C(C(=O)Nc6nccs6)c6ncn8c6CCC8)C7)cc5)CC4)CC3)c(F)c2)C(=O)N1 (stereo not drawn) [Compound 57, 2-(6,7-dihydro-5H-pyrrolo[1,2-c]imidazol-1-yl)-2-[6-[4-[[4-[2-[4-[4-[(2,6-dioxo-3-piperidyl)amino]-2-fluoro-phenyl]-1-piperidyl]acetyl]piperazin-1-yl]methyl]phenyl]-4-fluoro-1-oxo-isoindolin-2-yl]-N-thiazol-2-yl-acetamide] | 46 | 11 | 7 |
| O=C1CC[C@H](Nc2ccc(C3CCN(CC(=O)N4CCN(Cc5ccc(-c6cc(F)c7c(c6)C(=O)N(C(C(=O)Nc6nccs6)c6ncn8c6CCC8)C7)cc5)CC4)CC3)c(F)c2)C(=O)N1 (stereo partly drawn) [Compound 58, 2-(6,7-dihydro-5H-pyrrolo[1,2-c]imidazol-1-yl)-2-[6-[4-[[4-[2-[4-[4-[[(3S)-2,6-dioxo-3-piperidyl]amino]-2-fluoro-phenyl]-1-piperidyl]acetyl]piperazin-1-yl]methyl]phenyl]-4-fluoro-1-oxo-isoindolin-2-yl]-N-thiazol-2-yl-acetamide] | 26 | 26 | 14 |
| O=C1CC[C@H](Nc2ccc(C3CCN(C(=O)CN4CCN(Cc5ccc(-c6cc(F)c7c(c6)C(=O)N(C(C(=O)Nc6nccs6)c6ncn8c6CCC8)C7)cc5)CC4)CC3)c(F)c2)C(=O)N1 (stereo partly drawn) [Compound 59, 2-(6,7-dihydro-5H-pyrrolo[1,2-c]imidazol-1-yl)-2-[6-[4-[[4-[2-[4-[4-[[(3S)-2,6-dioxo-3-piperidyl]amino]-2-fluoro-phenyl]-1-piperidyl]-2-oxo-ethyl]piperazin-1-yl]methyl]phenyl]-4-fluoro-1-oxo-isoindolin-2-yl]-N-thiazol-2-yl-acetamide] | 19 | 12 | 8 |

Other lines, results leading:

| DC50 [1] [nM] | DC50 [2] [nM] | DC50 [3] [nM] | Structure (SMILES) |
| --- | --- | --- | --- |
| 25 | 6 | 17 | N#Cc1cc(NC2CCC(=O)NC2=O)ccc1C1CCN(CC(=O)N2CCC(c3ccc(-c4cc(F)c5c(c4)C(=O)N(C(C(=O)Nc4nccs4)c4ncn6c4CCC6)C5)cc3)CC2)CC1 (stereo not drawn) [Compound 25, 2-(6-(4-(1-(2-(4-(2-cyano-4-((2,6-dioxopiperidin-3-yl)amino)phenyl)piperidin-1-yl)acetyl)piperidin-4-yl)phenyl)-4-fluoro-1-oxoisoindolin-2-yl)-2-(6,7-dihydro-5H-pyrrolo[1,2-c]imidazol-1-yl)-N-(thiazol-2-yl)acetamide] |
| 47 | 12 | 11 | O=C1CC[C@H](Nc2ccc(C3CCN(CC(=O)N4CCC(Oc5ccc(-c6cc(F)c7c(c6)C(=O)N(C(C(=O)Nc6nccs6)c6ncn8c6CCC8)C7)cc5)CC4)CC3)cc2)C(=O)N1 (stereo partly drawn) [Compound 32, 2-(6,7-dihydro-5H-pyrrolo[1,2-c]imidazol-1-yl)-2-[6-[4-[[1-[2-[4-[4-[[(3S)-2,6-dioxo-3-piperidyl]amino]phenyl]-1-piperidyl]acetyl]-4-piperidyl]oxy]phenyl]-4-fluoro-1-oxo-isoindolin-2-yl]-N-thiazol-2-yl-acetamide] |
| 38 | 8 | 19 | O=C1CC[C@@H](Nc2ccc(C3CCN(CC(=O)N4CCC(Oc5ccc(-c6cc(F)c7c(c6)C(=O)N(C(C(=O)Nc6nccs6)c6ncn8c6CCC8)C7)cc5)CC4)CC3)cc2)C(=O)N1 (stereo partly drawn) [Compound 33, 2-(6,7-dihydro-5H-pyrrolo[1,2-c]imidazol-1-yl)-2-[6-[4-[[1-[2-[4-[4-[[(3R)-2,6-dioxo-3-piperidyl]amino]phenyl]-1-piperidyl]acetyl]-4-piperidyl]oxy]phenyl]-4-fluoro-1-oxo-isoindolin-2-yl]-N-thiazol-2-yl-acetamide] |
| 46 | 9 | 12 | O=C1CCC(Nc2ccc(C3CCN(CC(=O)N4CCC(Oc5ccc(-c6cc(F)c7c(c6)C(=O)N(C(C(=O)Nc6nccs6)c6ncn8c6CCC8)C7)cc5)CC4)CC3)c(F)c2)C(=O)N1 (stereo not drawn) [Compound 35, 2-(6,7-dihydro-5H-pyrrolo[1,2-c]imidazol-1-yl)-2-(6-(4-((1-(2-(4-(4-((2,6-dioxopiperidin-3-yl)amino)-2-fluorophenyl)piperidin-1-yl)acetyl)piperidin-4-yl)oxy)phenyl)-4-fluoro-1-oxoisoindolin-2-yl)-N-(thiazol-2-yl)acetamide] |
| 46 | 16 | 19 | N#Cc1cc(NC2CCC(=O)NC2=O)ccc1C1CCN(CC(=O)N2CCC(Oc3ccc(-c4cc(F)c5c(c4)C(=O)N(C(C(=O)Nc4nccs4)c4ncn6c4CCC6)C5)cc3)CC2)CC1 (stereo not drawn) [Compound 37, 2-(6-(4-((1-(2-(4-(2-cyano-4-((2,6-dioxopiperidin-3-yl)amino)phenyl)piperidin-1-yl)acetyl)piperidin-4-yl)oxy)phenyl)-4-fluoro-1-oxoisoindolin-2-yl)-2-(6,7-dihydro-5H-pyrrolo[1,2-c]imidazol-1-yl)-N-(thiazol-2-yl)acetamide] |
